Test results reported in patent US6924278B2, “Aroyl-piperazine derivatives, their preparation and their use as tachykinin antagonists” (Fujisawa Pharmaceutical Co., Ltd., priority 1997, dated 2005).
Counter-ions that a name gives are not always drawn.

`Cl.Cl.O=C(c1cc(C(F)(F)F)cc(C(F)(F)F)c1)N1CCN(CC#Cc2cccnc2)C[C@H]1Cc1c[nH]c2ccccc12` and `Cl.Cl.O=C(c1cc(C(F)(F)F)cc(C(F)(F)F)c1)N1CCN(CCC#Cc2cccnc2)C[C@H]1Cc1c[nH]c2ccccc12` cannot be ordered by melting point: 180 to 190 °C for the first, 175 to 185 °C for the second.

`Cl.Cl.O=C(c1cc(C(F)(F)F)cc(C(F)(F)F)c1)N1CCN(CC#Cc2cccnc2)C[C@H]1Cc1ccc2ccccc2c1` and `Cl.Cl.O=C(c1cc(C(F)(F)F)cc(C(F)(F)F)c1)N1CCN(CCCc2cccnc2)C[C@H]1Cc1ccc2ccccc2c1` cannot be ordered by melting point: 140 to 150 °C for the first, 138 to 148 °C for the second.

Compared with `Cl.Cl.O=C(c1cc(C(F)(F)F)cc(C(F)(F)F)c1)N1CCN(C/C=C\c2cccnc2)C[C@H]1Cc1ccc2ccccc2c1`, `Cc1ccc(C[C@@H]2CN(C/C=C\c3cccnc3)CCN2C(=O)c2cc(C(F)(F)F)cc(C(F)(F)F)c2)cc1C.Cl.Cl` is higher in melting point: 130 to 150 °C for the first, 170 to 174 °C for the second.

Compared with `COc1ccc(C#CCN2CCN(C(=O)c3cc(C(F)(F)F)cc(C(F)(F)F)c3)[C@H](Cc3ccc(C)c(C)c3)C2)cn1.Cl.Cl`, `Cc1ccc(C[C@@H]2CN(CC#Cc3ccc(N)nc3)CCN2C(=O)c2cc(C(F)(F)F)cc(C(F)(F)F)c2)cc1C.Cl.Cl` is higher in melting point: 160 to 170 °C for the first, 183 to 189 °C for the second.

First: COc1ccc(C#CCN2CCN(C(=O)c3cc(C(F)(F)F)cc(C(F)(F)F)c3)[C@H](Cc3c[nH]c4ccccc34)C2)cn1.Cl.Cl
Second: Cl.Cl.Nc1ccc(C#CCN2CCN(C(=O)c3cc(C(F)(F)F)cc(C(F)(F)F)c3)[C@H](Cc3c[nH]c4ccccc34)C2)cn1
The melting point of the first is lower: 183 to 189 °C for the first, 190 to 195 °C for the second.

First: Cc1ccc(C[C@@H]2CN(CCCc3ccccn3)CCN2C(=O)c2cc(C(F)(F)F)cc(C(F)(F)F)c2)cc1C.Cl.Cl
Second: COc1ccncc1CCCN1CCN(C(=O)c2cc(C(F)(F)F)cc(C(F)(F)F)c2)[C@H](Cc2ccc(C)c(C)c2)C1.Cl.Cl
The melting point of the first is lower: 120 to 130 °C for the first, 159 to 168 °C for the second.

First: Cl.Cl.O=C(c1cc(C(F)(F)F)cc(C(F)(F)F)c1)N1CCN(CCCc2cccnc2)C[C@H]1Cc1c[nH]c2ccccc12
Second: Cl.Cl.O=C(c1cc(C(F)(F)F)cc(C(F)(F)F)c1)N1CCN(CCCCc2cccnc2)C[C@H]1Cc1c[nH]c2ccccc12
The melting point of the first is higher: 150 to 160 °C for the first, 140 to 145 °C for the second.

`Cc1ccc(C[C@@H]2CN(CC#CCN3CCOC[C@@H]3CC(C)C)CCN2C(=O)c2cc(C(F)(F)F)cc(C(F)(F)F)c2)cc1C.Cl.Cl` and `Cc1ccc(C[C@@H]2CN(CC#CCN3CCOC[C@@H]3CO)CCN2C(=O)c2cc(C(F)(F)F)cc(C(F)(F)F)c2)cc1C.Cl.Cl` cannot be ordered by melting point: 125 to 138 °C for the first, 130 to 150 °C for the second.

`COc1ccncc1C#CCN1CCN(C(=O)c2cc(C(F)(F)F)cc(C(F)(F)F)c2)[C@H](Cc2c[nH]c3ccccc23)C1.Cl.Cl` and `COc1ccncc1CCCN1CCN(C(=O)c2cc(C(F)(F)F)cc(C(F)(F)F)c2)[C@H](Cc2c[nH]c3ccccc23)C1.Cl.Cl` cannot be ordered by melting point: 162 to 167 °C for the first, 165 to 170 °C for the second.

Compared with `COc1ccncc1C#CCN1CCN(C(=O)c2cc(C(F)(F)F)cc(C(F)(F)F)c2)[C@H](Cc2ccc(C)c(C)c2)C1.Cl.Cl`, `COc1ccc(CCCN2CCN(C(=O)c3cc(C(F)(F)F)cc(C(F)(F)F)c3)[C@H](Cc3ccc(C)c(C)c3)C2)cn1.Cl.Cl` is lower in melting point: 150 to 153 °C for the first, 127 to 137 °C for the second.

First: COc1ccc(CCCN2CCN(C(=O)c3cc(C(F)(F)F)cc(C(F)(F)F)c3)[C@H](Cc3c[nH]c4ccccc34)C2)cn1.Cl.Cl
Second: Cl.Cl.O=C(c1cc(C(F)(F)F)cc(C(F)(F)F)c1)N1CCN(CCCCc2ccccn2)C[C@H]1Cc1c[nH]c2ccccc12
The melting point of the first is higher: 195 to 200 °C for the first, 155 to 160 °C for the second.

First: Cc1ccc(C[C@@H]2CN(CCCn3cccn3)CCN2C(=O)c2cc(C(F)(F)F)cc(C(F)(F)F)c2)cc1C.Cl
Second: COC[C@@H]1COCCN1CCCN1CCN(C(=O)c2cc(C(F)(F)F)cc(C(F)(F)F)c2)[C@H](Cc2ccc(C)c(C)c2)C1.Cl.Cl
The melting point of the first is lower: 73 to 75 °C for the first, 80 to 100 °C for the second.

First: Cl.Cl.O=C(c1cc(C(F)(F)F)cc(C(F)(F)F)c1)N1CCN(CC#Cc2ccccn2)C[C@H]1Cc1c[nH]c2ccccc12
Second: CC[C@@H]1COCCN1CC#CCN1CCN(C(=O)c2cc(C(F)(F)F)cc(C(F)(F)F)c2)[C@H](Cc2c[nH]c3ccccc23)C1.Cl.Cl
The melting point of the first is lower: 160 to 166 °C for the first, 176 to 180 °C for the second.

`CCOC[C@H]1COCCN1CC#CCN1CCN(C(=O)c2cc(C(F)(F)F)cc(C(F)(F)F)c2)[C@H](Cc2ccc(C)c(C)c2)C1.Cl.Cl` and `Cc1ccc(C[C@@H]2CN(CC#CCN3CCOC[C@H]3C(=O)N(C)C)CCN2C(=O)c2cc(C(F)(F)F)cc(C(F)(F)F)c2)cc1C.Cl.Cl` cannot be ordered by melting point: 155 to 160 °C for the first, 150 to 160 °C for the second.

First: COC[C@@H]1COCCN1C/C=C/CN1CCN(C(=O)c2cc(C(F)(F)F)cc(C(F)(F)F)c2)[C@H](Cc2ccc(C)c(C)c2)C1.Cl.Cl
Second: COCC1CN(CCN2CCN(C(=O)c3cc(C(F)(F)F)cc(C(F)(F)F)c3)[C@H](Cc3ccc(C)c(C)c3)C2)CCO1.Cl.Cl (some centres unmarked)
The melting point of the first is higher: 240 to 250 °C for the first, 150 to 154 °C for the second.

First: COC[C@H]1CCCN1CC#CCN1CCN(C(=O)c2cc(C(F)(F)F)cc(C(F)(F)F)c2)[C@H](Cc2c[nH]c3ccccc23)C1.Cl.Cl
Second: COC[C@H]1COCCN1CCN1CCN(C(=O)c2cc(C(F)(F)F)cc(C(F)(F)F)c2)[C@H](Cc2c[nH]c3ccccc23)C1.Cl.Cl
The melting point of the first is higher: 190 to 195 °C for the first, 175 to 185 °C for the second.

First: COC[C@@H]1COCCN1CCN1CCN(C(=O)c2cc(C(F)(F)F)cc(C(F)(F)F)c2)[C@H](Cc2c[nH]c3ccccc23)C1.Cl.Cl
Second: C[C@H]1COC[C@H](C)N1CCN1CCN(C(=O)c2cc(C(F)(F)F)cc(C(F)(F)F)c2)[C@H](Cc2c[nH]c3ccccc23)C1.Cl.Cl
The melting point of the first is lower: 130 to 150 °C for the first, 170 to 180 °C for the second.

First: COc1cccc(CC2CN(CC#CCN3CCOCC3(C)C)CCN2C(=O)c2cc(C(F)(F)F)cc(C(F)(F)F)c2)c1OC.Cl.Cl (centres unmarked)
Second: CN(C)c1cccc(CC2CN(CC#CCN3CCOCC3(C)C)CCN2C(=O)c2cc(C(F)(F)F)cc(C(F)(F)F)c2)c1.Cl.Cl.Cl (centres unmarked)
The melting point of the first is lower: 170 °C for the first, 205 to 210 °C for the second.

Compared with `CNc1cc(C(=O)N2CCN(CC#CCN3CCOCC3(C)C)C[C@H]2Cc2c[nH]c3ccccc23)cc(C(F)(F)F)c1.Cl.Cl`, `CNc1cccc(CC2CN(CC#CCN3CCOCC3(C)C)CCN2C(=O)c2cc(C(F)(F)F)cc(C(F)(F)F)c2)c1` (centres unmarked) (as salt: hydrochloride) [Example 93, 1-[3,5-Bis(trifluoromethyl)benzoyl]-4-[4-(3,3-dimethylmorpholino)-2-butynyl]-2-[3-(N-methylamino)benzyl]piperazine] is lower in melting point: 215 to 230 °C for the first, 192 to 195 °C for the second.

For `Cc1ccc(C[C@@H]2CN(CC#CCN3CCSCC3)CCN2C(=O)c2cc(Cl)cc(Cl)c2)cc1C.Cl.Cl`, the melting point was 128 °C (dec.).
With `Cl.Cl.O=C(c1cc(Cl)cc(Cl)c1)N1CCN(CC#CCN2CCSCC2)C[C@H]1Cc1c[nH]c2ccccc12` the melting point was 175 °C (dec.).
With `Cl.Cl.O=C(c1cc(Cl)cc(Cl)c1)N1CCN(CC#CCN2CCOCC2)C[C@H]1Cc1c[nH]c2ccccc12` the melting point was 165 °C (dec.).
In the case of `Cl.Cl.O=C(c1cc(Cl)cc(Cl)c1)N1CCN(CC#CCN2CCOCC2)C[C@H]1Cc1ccc2ccccc2c1`, the melting point is reported as 171 °C (dec.).
For `Cl.Cl.O=C(c1cc(Cl)cc(Cl)c1)N1CCN(CC#CCN2CCSCC2)C[C@H]1Cc1ccc(C(F)(F)F)cc1`, the melting point was 172 °C (dec.).
With `Cl.Cl.O=C(c1cc(Cl)cc(Cl)c1)N1CCN(CC#CCN2CCOCC2)C[C@H]1Cc1ccc(C(F)(F)F)cc1` the melting point was 186 °C (dec.).
